Reference: ChEMBL document CHEMBL1149160, “Bisguanidine, bis(2-aminoimidazoline), and polyamine derivatives as potent and selective chemotherapeutic agents against Trypanosoma brucei rhodesiense. Synthesis and in vitro evaluation” (J Med Chem, 2004)

Tests used:
[1] = test system: Trypanosoma brucei rhodesiense; experiment: In vitro antitrypanosomal activity against Trypanosoma brucei rhodesiense; assay type: functional, organism-based
[2] = test system: L6; experiment: Ratio of cytotoxicity against L6 cells to that of antitrypanosomal activity against Trypanosoma brucei rhodesiense; assay type: functional
[3] = test system: L6; experiment: Cytotoxic activity against rat L6 cells; assay type: cell-based

SMILES	IC50 [1]	Ratio [2]	IC50 [3]
N=C(N)c1cccc(/C=N/N=C(\N)N/N=C/c2cccc(C(=N)N)c2)c1	4.5 µM		
c1cc(Nc2ccc(NC3=NCCN3)cc2)ccc1NC1=NCCN1		3072	
N=C(N)Nc1ccc(Nc2ccc(NC(=N)N)cc2)cc1	0.022 µM	29.5	
CCOC(CNC(=N)Nc1ccc(Cc2ccc(NC(=N)NCC(OCC)OCC)cc2)cc1)OCC		>554	
O=C(NCCCN1CCN(C(=O)OCc2ccccc2)C1)OCc1ccccc1	3.9 µM	27	106 µM
N=C(N)NCCCCCCCCCNC(=N)N	0.049 µM	>5294	> 265 µM
O=C(NCCCN(CCNC(=O)OCc1ccccc1)CCc1ccccc1)OCc1ccccc1	3.88 µM	6.4	24.7 µM
CC(C)(C)OC(=O)/N=C(/C=C(/O)OC(C)(C)C)Nc1ccc(Cc2ccc(N/C(=N\C(=O)OC(C)(C)C)NC(=O)OC(C)(C)C)cc2)cc1	31.7 µM		
CN(CCCNC1=NCCN1)CCNC1=NCCN1	46.6 µM		
C(CCCCNC1=NCCN1)CCCNC1=NCCN1	0.453 µM	9.4	4.2 µM
c1ccc(CCN(CCCNC2=NCCN2)CCNC2=NCCN2)cc1	27.6 µM		
CC(C)(C)OC(=O)/N=C(\NC(=O)OC(C)(C)C)Nc1ccc(S(=O)(=O)c2ccc(N/C(=N/C(=O)OC(C)(C)C)NC(=O)OC(C)(C)C)cc2)cc1	24.4 µM		
CC(C)(C)OC(=O)N1CCN(C(=O)OC(C)(C)C)C1=Nc1ccc(C(=O)c2ccc(N=C3N(C(=O)OC(C)(C)C)CCN3C(=O)OC(C)(C)C)cc2)cc1	7.2 µM		
N=C(N)Nc1ccc(C(=O)c2ccc(NC(=N)N)cc2)cc1		13.1	
CC(C)(C)OC(=O)/N=C(/C=C(/O)OC(C)(C)C)Nc1ccc(Nc2ccc(N/C(=N\C(=O)OC(C)(C)C)NC(=O)OC(C)(C)C)cc2)cc1	0.47 µM	7.9	3.7 µM
C1CCC(/N=C(\NC2CCCCC2)N(CCCN=C(NC2CCCCC2)NC2CCCCC2)CCN=C(NC2CCCCC2)NC2CCCCC2)CC1	0.98 µM	>82	> 83 µM
CC(C)(C)OC(=O)/N=C(\NC(=O)OC(C)(C)C)Nc1cccc(N2CCN(c3cccc(N/C(=N\C(=O)OC(C)(C)C)NC(=O)OC(C)(C)C)c3)CC2)c1	13.8 µM		
C1CNC(N2CCC(N3CCN(C4=NCCN4)CC3)CC2)=N1	71.2 µM		
N=C(N)Nc1ccc(S(=O)(=O)c2ccc(NC(=N)N)cc2)cc1		>51	
CCOC(CNC(=N)Nc1ccc(Nc2ccc(NC(=N)NCC(OCC)OCC)cc2)cc1)OCC		>767	
CC(C)(C)OC(=O)N1CCN(C(=O)OC(C)(C)C)C1=Nc1ccc(Cc2ccc(N=C3N(C(=O)OC(C)(C)C)CCN3C(=O)OC(C)(C)C)cc2)cc1	11.6 µM		
CCCCCCCCN=C(N)N	49.1 µM		

SMILES	IC50 [1]	Ratio [2]	IC50 [3]
CCCCC[P+](CCCCC)(CCCCC)c1ccc(C(=O)c2ccc([P+](CCCCC)(CCCCC)CCCCC)cc2)cc1.[Br-].[Br-]	0.414 µM	28.5	11.8 µM
O=[N+]([O-])c1ccc(-c2ccc([N+](=O)[O-])cc2)cc1	41.8 µM		
N=C(N)NCCCCCCCCCCCCNC(=N)N	0.047 µM	13	0.63 µM
N=C(N)NCCCCCCCCNC(=N)N	0.251 µM	>1100	> 276 µM
O=C(c1ccc(NC2=NCCN2)cc1)c1ccc(NC2=NCCN2)cc1		>104	
CCCCCCCCCN=C(N)N	19.9 µM		
CCCNCCCNC1=NCCN1	113 µM		
N=C(N)NCCNCCNC(=N)N	16.1 µM		
N=C(N)Nc1ccc(-c2ccc(NC(=N)N)cc2)cc1	0.27 µM	172	46.4 µM
C1CNC(NCCNCCNC2=NCCN2)=N1	84.4 µM		
c1c[nH]c(Nc2ccc(Nc3ccc(Nc4ncc[nH]4)cc3)cc2)n1	1.4 µM	80.7	113 µM
C(CNCCCNC1=NCCN1)CNC1=NCCN1	29.7 µM		
C(CCCNC1=NCCN1)CCNC1=NCCN1	19.3 µM		
CN(CCCNC(=O)OCc1ccccc1)CCNC(=O)OCc1ccccc1	3.1 µM	41	130 µM
CC(C)(C)OC(=O)N1CCC(N2CCN(C(=O)OC(C)(C)C)CC2)CC1	30.3 µM		
N=C(N)NCCCNCCNC(=N)N	21.4 µM		
N=C(N)NCCCCCCNC(=N)N	8.05 µM	>37	> 302 µM
c1cc(NC2=NCCN2)ccc1Cc1ccc(NC2=NCCN2)cc1		71	
CC(C)(C)OC(=O)N1CCN(C(=O)OC(C)(C)C)C1=Nc1ccc(Nc2ccc(N=C3N(C(=O)OC(C)(C)C)CCN3C(=O)OC(C)(C)C)cc2)cc1		202	
O=C(c1ccc(Br)cc1)c1ccc(Br)cc1	25.9 µM	>9.4	> 244 µM
O=C(NCCCN(CCO)CCNC(=O)OCc1ccccc1)OCc1ccccc1	14 µM	8.3	116 µM
CC(=O)OCCN(CCCNC(=O)OCc1ccccc1)CCNC(=O)OCc1ccccc1	7.1 µM	>26	> 191 µM

SMILES	IC50 [1]	Ratio [2]	IC50 [3]
CN(CCN)CCCN	61.8 µM		
C(CCCCCCNC1=NCCN1)CCCCCNC1=NCCN1	0.107 µM	22	2.35 µM
C(CCCCNC1=NCCN1)CCCCNC1=NCCN1	0.225 µM	71	16 µM
NCCCN(CCN)CCc1c[nH]c2ccccc12	13.8 µM		
C1CC(N2CCNCC2)CCN1	57.9 µM		
N=C(N)NCCCNCCCNC(=N)N	21.2 µM		
CC(C)(C)OC(=O)NCC/N=C(\S)N1CCC(N2CCN(/C(S)=N\CCNC(=O)OC(C)(C)C)CC2)CC1	12.6 µM		
NCCCN(CCN)CCc1ccccc1	17.4 µM	12	214 µM
N=C(N)Nc1ccc(Cc2ccc(NC(=N)N)cc2)cc1		17.4	
O=C(NCCCN(CCNC(=O)OCc1ccccc1)CCc1c[nH]c2ccccc12)OCc1ccccc1	1 µM	7.8	7.8 µM
CC(C)(C)OC(=O)N1CCN(C(=O)OC(C)(C)C)C1=Nc1ccc(S(=O)(=O)c2ccc(N=C3N(C(=O)OC(C)(C)C)CCN3C(=O)OC(C)(C)C)cc2)cc1		21.7	
N=C(N)NCCCN(CCNC(=N)N)CCc1ccccc1	4.5 µM	>43	> 199 µM
O=C(CN1CCCN(C(=O)OCc2ccccc2)C1)OCc1ccccc1	4.78 µM	18.6	89 µM
C(CNCCNC1=NCCN1)CNC1=NCCN1	69.1 µM		
c1cc(-c2ccc(NC3=NCCN3)cc2)ccc1NC1=NCCN1	0.118 µM	881	104 µM
C1CCC(NC(=NCCCNCCN=C(NC2CCCCC2)NC2CCCCC2)NC2CCCCC2)CC1	2.4 µM		
Nc1ccc(-c2ccc(N)cc2)cc1 [BENZIDINE]	1.42 µM	>152	> 217 µM
N=C(N)c1ccc(/N=N/Nc2ccc(C(=N)N)cc2)cc1 [DIMINAZENE DIACETURATE]	0.0089 µM		
CCCCCCCCCCCCNC(=N)N [DODINE]	11 µM	1.8	19.6 µM
Nc1nc(N)nc(Nc2ccc([As]3SCC(CO)S3)cc2)n1 (stereo unspecified) [MELARSOPROL]	5.5 µM	3456	
